Our source for the EC50 values is patent publication US10058550B2, “Methods of treating heart failure” (priority 2015, dated 2018).

For the assay, the target named is human APJ receptor (Homo sapiens (Human), UniProt P35414). In words: biochemical. It counts as biochemical. As to conditions: read-out: Activity hAPJ SPA EC50 IP. The gist of the method:
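Membranes from CHO cells stably expressing cloned human APJ were incubated with WGA SPA beads in 20 mM HEPES pH 7.5, 5 mM MgCl2, 0.1% BSA, 200 mM NaCl and 3 μM GDP. Reaction started with 0.2 nM [35S]GTPγS ± ligands, 90 min at RT. EC50 obtained by non-linear regression as mean of independent experiments.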

pEC50: −log10 of the molar value.

Chain of human APJ receptor (P35414 whole entry): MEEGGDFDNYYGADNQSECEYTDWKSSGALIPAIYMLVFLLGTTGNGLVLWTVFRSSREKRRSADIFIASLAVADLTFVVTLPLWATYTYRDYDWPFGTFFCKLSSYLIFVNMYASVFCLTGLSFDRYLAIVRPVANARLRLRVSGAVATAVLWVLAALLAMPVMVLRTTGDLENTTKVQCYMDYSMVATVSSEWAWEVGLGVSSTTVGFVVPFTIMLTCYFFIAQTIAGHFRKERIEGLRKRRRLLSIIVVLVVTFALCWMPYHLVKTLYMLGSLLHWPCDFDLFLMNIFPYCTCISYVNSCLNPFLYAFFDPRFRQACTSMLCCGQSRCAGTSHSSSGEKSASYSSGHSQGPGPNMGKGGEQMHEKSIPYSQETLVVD

As to `COc1cccc(-c2nnc(NS(=O)(=O)[C@@H](C)[C@H](O)C(C)(C)C)n2-c2c(OC)cccc2OC)n1` (single isomer, unassigned) [Example 434.0, (2S,3R)—N-(4-(2,6-dimethoxyphenyl)-5-(6-methoxy-2-pyridinyl)-4H-1,2,4-triazol-3-yl)-3-hydroxy-4,4-dimethyl-2-pentanesulfonamide or (2R,3S)—N-(4-(2,6-dimethoxyphenyl)-5-(6-methoxy-2-pyridinyl)-4H-1,2,4-triazol-3-yl)-3-hydroxy-4,4-dimethyl-2-pentanesulfonamide], the pEC50 is 6.92. Next, `COc1cccc(-c2nnc(NS(=O)(=O)[C@@H](C)[C@@H](O)C(C)(C)C)n2-c2c(OC)cccc2OC)n1` (single isomer, unassigned) [Example 435.0, (2S,3S)—N-(4-(2,6-dimethoxyphenyl)-5-(6-methoxy-2-pyridinyl)-4H-1,2,4-triazol-3-yl)-3-hydroxy-4,4-dimethyl-2-pentanesulfonamide or (2R,3R)—N-(4-(2,6-dimethoxyphenyl)-5-(6-methoxy-2-pyridinyl)-4H-1,2,4-triazol-3-yl)-3-hydroxy-4,4-dimethyl-2-pentanesulfonamide]: 7.62; `COc1cccc(-c2nnc(NS(=O)(=O)[C@@H](C)[C@@H](O)C(C)(C)C)n2-c2c(OC)cccc2OC)n1` (single isomer, unassigned) [Example 436.0, (2S,3S)—N-(4-(2,6-dimethoxyphenyl)-5-(6-methoxy-2-pyridinyl)-4H-1,2,4-triazol-3-yl)-3-hydroxy-4,4-dimethyl-2-pentanesulfonamide or (2R,3R)—N-(4-(2,6-dimethoxyphenyl)-5-(6-methoxy-2-pyridinyl)-4H-1,2,4-triazol-3-yl)-3-hydroxy-4,4-dimethyl-2-pentanesulfonamide]: 7.00. As to `COc1cccc(-c2nnc(NS(=O)(=O)[C@@H](C)[C@H](O)C(C)(C)C)n2-c2c(OC)cccc2OC)n1` (single isomer, unassigned) [Example 437.0, (2S,3R)—N-(4-(2,6-dimethoxyphenyl)-5-(6-methoxy-2-pyridinyl)-4H-1,2,4-triazol-3-yl)-3-hydroxy-4,4-dimethyl-2-pentanesulfonamide or (2R,3S)—N-(4-(2,6-dimethoxyphenyl)-5-(6-methoxy-2-pyridinyl)-4H-1,2,4-triazol-3-yl)-3-hydroxy-4,4-dimethyl-2-pentanesulfonamide], the pEC50 was 7.51.

In the case of `COc1cccc(-c2nnc(NS(=O)(=O)[C@@H](C)[C@H](O)C3CC3)n2-c2c(OC)cccc2OC)n1` (single isomer, unassigned) [Example 439.0, (1R,2S)-1-cyclopropyl-N-(4-(2,6-dimethoxyphenyl)-5-(6-methoxy-2-pyridinyl)-4H-1,2,4-triazol-3-yl)-1-hydroxy-2-propanesulfonamide or (1S,2R)-1-cyclopropyl-N-(4-(2,6-dimethoxyphenyl)-5-(6-methoxy-2-pyridinyl)-4H-1,2,4-triazol-3-yl)-1-hydroxy-2-propanesulfonamide], the pEC50 was 6.96.

Consider `COc1cccc(OC)c1-n1c(NS(=O)(=O)C[C@H](O)c2ccc(Cl)cc2S(C)(=O)=O)nnc1-c1cncc(C)c1` (single isomer, unassigned) [Example 458.0, (2R)-2-(4-chloro-2-(methylsulfonyl)phenyl)-N-(4-(2,6-dimethoxyphenyl)-5-(5-methyl-3-pyridinyl)-4H-1,2,4-triazol-3-yl)-2-hydroxyethanesulfonamide or (2S)-2-(4-chloro-2-(methylsulfonyl)phenyl)-N-(4-(2,6-dimethoxyphenyl)-5-(5-methyl-3-pyridinyl)-4H-1,2,4-triazol-3-yl)-2-hydroxyethanesulfonamide], for which the pEC50 was 9.80. Consider `COc1cccc(-c2nnc(NS(=O)(=O)[C@@H](C)[C@H](OC)c3ccc(C#N)cc3C#N)n2-c2c(OC)cccc2OC)n1` (single isomer, unassigned) [Example 474.0, (1R,2S)-1-(2,4-dicyanophenyl)-N-(4-(2,6-dimethoxyphenyl)-5-(6-methoxy-2-pyridinyl)-4H-1,2,4-triazol-3-yl)-1-methoxy-2-propanesulfonamide or (1S,2R)-1-(2,4-dicyanophenyl)-N-(4-(2,6-dimethoxyphenyl)-5-(6-methoxy-2-pyridinyl)-4H-1,2,4-triazol-3-yl)-1-methoxy-2-propanesulfonamide], for which the pEC50 is 9.46. Regarding `COc1cccc(-c2nnc(NS(=O)(=O)[C@H](C)[C@H](OC)c3ccc(C#N)cc3C#N)n2-c2c(OC)cccc2OC)n1` (single isomer, unassigned) [Example 476.0, (1R,2R)-1-(2,4-dicyanophenyl)-N-(4-(2,6-dimethoxyphenyl)-5-(6-methoxy-2-pyridinyl)-4H-1,2,4-triazol-3-yl)-1-methoxy-2-propanesulfonamide or (1S,2S)-1-(2,4-dicyanophenyl)-N-(4-(2,6-dimethoxyphenyl)-5-(6-methoxy-2-pyridinyl)-4H-1,2,4-triazol-3-yl)-1-methoxy-2-propanesulfonamide], the pEC50 was 9.26. With `COc1cccc(-c2nnc(NS(=O)(=O)C[C@@H](O)c3ccc(C#N)cc3S(C)(=O)=O)n2-c2c(OC)cccc2OC)n1` (single isomer, unassigned) [Example 482.0, (2S)-2-(4-cyano-2-(methylsulfonyl)phenyl)-N-(4-(2,6-dimethoxyphenyl)-5-(6-methoxy-2-pyridinyl)-4H-1,2,4-triazol-3-yl)-2-hydroxyethanesulfonamide or (2R)-2-(4-cyano-2-(methylsulfonyl)phenyl)-N-(4-(2,6-dimethoxyphenyl)-5-(6-methoxy-2-pyridinyl)-4H-1,2,4-triazol-3-yl)-2-hydroxyethanesulfonamide], the pEC50 is 9.70. Next, `COc1cccc(-c2nnc(NS(=O)(=O)C[C@H](OC)c3ccc(C#N)cc3S(C)(=O)=O)n2-c2c(OC)cccc2OC)n1` (single isomer, unassigned) [Example 485.0, (2R)-2-(4-cyano-2-(methylsulfonyl)phenyl)-N-(4-(2,6-dimethoxyphenyl)-5-(6-methoxy-2-pyridinyl)-4H-1,2,4-triazol-3-yl)-2-methoxyethanesulfonamide or (2S)-2-(4-cyano-2-(methylsulfonyl)phenyl)-N-(4-(2,6-dimethoxyphenyl)-5-(6-methoxy-2-pyridinyl)-4H-1,2,4-triazol-3-yl)-2-methoxyethanesulfonamide]: 10.01; `COc1cccc(-c2nnc(NS(=O)(=O)C[C@H](OC)c3ccc(C#N)cc3S(C)(=O)=O)n2-c2c(OC)cccc2OC)n1` (single isomer, unassigned) [Example 486.0, (2R)-2-(4-cyano-2-(methylsulfonyl)phenyl)-N-(4-(2,6-dimethoxyphenyl)-5-(6-methoxy-2-pyridinyl)-4H-1,2,4-triazol-3-yl)-2-methoxyethanesulfonamide or (2S)-2-(4-cyano-2-(methylsulfonyl)phenyl)-N-(4-(2,6-dimethoxyphenyl)-5-(6-methoxy-2-pyridinyl)-4H-1,2,4-triazol-3-yl)-2-methoxyethanesulfonamide]: 10.14.
